This passage reports IC50 results from patent US7541367B2, “3-benzoimidazolyl-pyrazolopyridines useful in treating kinase disorders” (Janssen Pharmaceutica, N.V., priority 2005, dated 2009).

Molecules are shown by their SMILES. Bounds are passed on as bounds.

Usually IC50 stands for the point on the concentration scale where inhibition reaches its midpoint.

The target in one experiment is T1, Aurora-A (Mus musculus, UniProt P97477).
T1 construct: polyhistidine (N)
T1 sequence (P97477 1-395): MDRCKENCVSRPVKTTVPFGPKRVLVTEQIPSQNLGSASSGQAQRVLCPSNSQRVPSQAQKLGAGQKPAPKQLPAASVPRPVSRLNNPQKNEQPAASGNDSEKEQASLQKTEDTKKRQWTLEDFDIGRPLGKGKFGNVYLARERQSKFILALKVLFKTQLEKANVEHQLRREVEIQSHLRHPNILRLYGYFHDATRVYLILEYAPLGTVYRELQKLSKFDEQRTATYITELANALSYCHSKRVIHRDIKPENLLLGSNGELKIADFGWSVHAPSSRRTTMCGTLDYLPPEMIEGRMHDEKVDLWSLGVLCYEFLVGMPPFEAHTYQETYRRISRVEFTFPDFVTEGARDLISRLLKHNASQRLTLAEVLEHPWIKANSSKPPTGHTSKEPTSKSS
Kind of experiment: Aurora-A kinase screening assay (33P-ATP FlashPlate).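 Note: His-tagged mouse Aurora-A phosphorylating a biotinylated peptide captured on streptavidin plates, read as 33P uptake by scintillation counting, 1% DMSO, inhibition scaled between per-plate maximum and minimum signals.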 In kind it is biochemical. Conditions: 10 μM ATP, 1 hr at 30° C.

A further experiment deals with T2, c-Src kinase (Homo sapiens, UniProt P12931).
T2 construct: purchased Upstate Biotechnology, Lake Placid, N.Y
T2 sequence (P12931 whole entry): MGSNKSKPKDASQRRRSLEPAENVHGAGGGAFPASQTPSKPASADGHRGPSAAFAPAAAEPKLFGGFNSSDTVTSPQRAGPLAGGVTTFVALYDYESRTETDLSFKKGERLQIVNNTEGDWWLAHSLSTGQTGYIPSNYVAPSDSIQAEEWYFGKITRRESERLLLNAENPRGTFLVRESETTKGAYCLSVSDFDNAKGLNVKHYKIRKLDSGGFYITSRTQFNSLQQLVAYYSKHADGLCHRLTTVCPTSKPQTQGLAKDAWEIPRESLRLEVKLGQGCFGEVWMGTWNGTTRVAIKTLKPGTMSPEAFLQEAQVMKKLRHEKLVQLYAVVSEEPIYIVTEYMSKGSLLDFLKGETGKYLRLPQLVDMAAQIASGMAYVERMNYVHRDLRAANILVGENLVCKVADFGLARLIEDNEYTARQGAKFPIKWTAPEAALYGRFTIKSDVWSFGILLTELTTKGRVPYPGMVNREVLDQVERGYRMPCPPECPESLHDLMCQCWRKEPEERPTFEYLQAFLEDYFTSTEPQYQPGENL
The experiment in a line: c-Src Kinase Assay. The settings on record: 5 μM ATP. It counts as biochemical. The gist of the method:
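Human c-Src phosphorylated Cdc2 peptide (100 μM) […]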

For the next experiment, the target named is T3, HER2 (Homo sapiens, UniProt P04626).
T3 construct: GST (Glutathione-S-Transferase) (N); HIS6 (N); thrombin cleavage site (N); purchased Proqinase, Freiburg, Germany
T3 sequence (P04626 679-1255): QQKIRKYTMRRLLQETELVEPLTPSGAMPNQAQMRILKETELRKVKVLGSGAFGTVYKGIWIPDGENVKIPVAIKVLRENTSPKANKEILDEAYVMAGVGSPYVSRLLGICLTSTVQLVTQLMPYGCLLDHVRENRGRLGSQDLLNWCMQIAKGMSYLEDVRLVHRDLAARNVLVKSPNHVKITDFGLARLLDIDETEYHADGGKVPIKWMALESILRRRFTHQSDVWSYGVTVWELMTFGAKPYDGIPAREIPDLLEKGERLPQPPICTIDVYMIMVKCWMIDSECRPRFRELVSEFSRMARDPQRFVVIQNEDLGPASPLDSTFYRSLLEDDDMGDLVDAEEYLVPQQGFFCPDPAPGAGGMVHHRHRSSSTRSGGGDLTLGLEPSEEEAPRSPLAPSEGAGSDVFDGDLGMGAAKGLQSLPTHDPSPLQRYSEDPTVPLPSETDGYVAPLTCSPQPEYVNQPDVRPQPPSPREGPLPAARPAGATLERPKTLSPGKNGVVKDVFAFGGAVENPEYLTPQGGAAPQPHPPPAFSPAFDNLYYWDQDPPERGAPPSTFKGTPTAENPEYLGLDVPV
The experiment in a line: HER2 kinase screening assay (33P-ATP FlashPlate).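 Note: Biotin-poly(GT) 4:1 peptide captured on streptavidin FlashPlate, 33P transfer from γ-ATP read by scintillation counting, lower incorporation means inhibition, 1% DMSO final, 100 µL reaction.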 It counts as biochemical. The settings on record: GST-HIS6 HER-2 aa 679 to 1255; 10 μM ATP; 1 hr at 30° C.

Another experiment addresses T4, VEGF-R2 (Rattus norvegicus, UniProt O08775).
T4 construct: polyhistidine (N)
The experiment in a line: VEGF-R2 kinase screening assay (33P-ATP FlashPlate).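 Note: Read-out is ³³P incorporation from ³³P-γ-ATP into biotinylated peptide substrate captured on streptavidin FlashPlate, counted by scintillation, 1% DMSO final, inhibition scaled between per-plate maximum and minimum signals.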 It counts as biochemical. The settings on record: rat VEGF-R2 kinase domain; 10 μM ATP; 1 hr at 30° C.

In the next experiment the test system is A375 malignant melanoma. The experiment in a line: Cell Proliferation Inhibition Assay (14C-thymidine incorporation), A375.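 Note: proliferation measured by radiolabelled thymidine uptake into new DNA, counted in scintillating 96-well plates, compound-treated wells compared with DMSO-only control wells.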 In kind it is cell-based. Conditions: Homo sapiens, A-375, A375 cells.
Experiment [1] has as its system HeLa cervical adenocarcinoma. The experiment in a line: Cell Proliferation Inhibition Assay (14C-thymidine incorporation), HeLa.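 Note: test compound in DMSO added to cells seeded in scintillating 96-well plates, DMSO-only wells as control, uptake of methyl 14C-thymidine into new DNA counted.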 It counts as cell-based. Conditions: Homo sapiens, HeLa, HeLa cells.
The test system of the next experiment is HCT-116 colon carcinoma. The experiment in a line: Cell Proliferation Inhibition Assay (14C-thymidine incorporation), HCT-116.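 Note: proliferation measured as methyl 14C-thymidine uptake into new DNA, counted in 96-well scintillating microplates, compared with DMSO-only control wells.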 The settings on record: Homo sapiens, HCT-116, HCT-116 cells. In kind it is cell-based. (In general: Uptake of a labelled nucleoside into DNA is a usual measure of proliferation.)
A further experiment deals with T5, CDK1 (Homo sapiens, UniProt P06493).
T5 construct: purchased New England Biolabs, Beverly, Mass; 6020; host or cells: insect cells
T5 sequence (P06493 whole entry): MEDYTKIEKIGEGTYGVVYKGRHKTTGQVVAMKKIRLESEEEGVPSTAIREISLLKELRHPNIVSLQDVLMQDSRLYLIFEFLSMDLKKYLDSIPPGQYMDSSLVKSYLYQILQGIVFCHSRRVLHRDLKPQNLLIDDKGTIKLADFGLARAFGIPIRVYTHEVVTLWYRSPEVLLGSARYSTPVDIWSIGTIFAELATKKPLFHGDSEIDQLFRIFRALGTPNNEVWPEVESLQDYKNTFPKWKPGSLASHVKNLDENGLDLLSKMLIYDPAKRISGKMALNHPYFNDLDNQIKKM
T5 sequence (P14635 whole entry partner): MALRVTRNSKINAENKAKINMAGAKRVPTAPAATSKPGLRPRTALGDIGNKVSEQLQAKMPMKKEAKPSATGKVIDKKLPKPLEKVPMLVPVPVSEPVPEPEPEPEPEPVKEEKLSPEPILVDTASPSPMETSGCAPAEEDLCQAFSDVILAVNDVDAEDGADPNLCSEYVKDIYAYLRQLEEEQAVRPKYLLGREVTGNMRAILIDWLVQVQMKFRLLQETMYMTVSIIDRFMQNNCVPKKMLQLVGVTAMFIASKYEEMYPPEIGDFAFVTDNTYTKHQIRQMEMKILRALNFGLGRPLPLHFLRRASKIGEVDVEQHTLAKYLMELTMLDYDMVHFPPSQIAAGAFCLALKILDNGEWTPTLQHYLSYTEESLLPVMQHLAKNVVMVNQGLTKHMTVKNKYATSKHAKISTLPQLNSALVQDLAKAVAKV
The experiment in a line: CDK-1 kinase screening assay (33P-ATP FlashPlate). It counts as biochemical. The settings on record: human CDK1 with cyclin B; 10 μM ATP; 1 hr at 30° C.

The target in a further experiment is T6, RET (Homo sapiens, UniProt P07949).
T6 construct: polyhistidine (N)
T6 sequence (P07949 658-1114 limits assumed): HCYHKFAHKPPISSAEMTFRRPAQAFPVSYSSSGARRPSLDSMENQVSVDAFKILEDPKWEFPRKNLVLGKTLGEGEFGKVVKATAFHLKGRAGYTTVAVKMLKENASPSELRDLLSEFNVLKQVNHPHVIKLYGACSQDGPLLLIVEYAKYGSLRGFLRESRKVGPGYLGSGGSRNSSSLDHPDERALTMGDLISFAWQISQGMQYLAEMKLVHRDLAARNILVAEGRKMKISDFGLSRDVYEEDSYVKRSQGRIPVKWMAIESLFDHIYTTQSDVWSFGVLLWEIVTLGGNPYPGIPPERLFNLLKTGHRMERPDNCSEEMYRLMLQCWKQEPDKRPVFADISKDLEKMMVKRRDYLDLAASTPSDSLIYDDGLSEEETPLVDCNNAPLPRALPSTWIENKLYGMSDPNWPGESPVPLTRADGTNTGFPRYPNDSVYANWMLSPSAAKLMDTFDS
The experiment in a line: RET kinase screening assay (33P-ATP FlashPlate).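 Note: biotinylated peptide substrate captured on streptavidin FlashPlate, 33P phosphate transfer read by scintillation counting, 1% DMSO, lower incorporation means inhibition, percent relative to per-plate maximum and minimum signals.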 It counts as biochemical. Conditions: human RET kinase domain; 10 μM ATP; 1 hr at 30° C.

A further experiment deals with T7, Lyn kinase (Homo sapiens, UniProt P07948).
T7 construct: purchased Upstate Biotechnology, Lake Placid, N.Y
T7 sequence (P07948 whole entry): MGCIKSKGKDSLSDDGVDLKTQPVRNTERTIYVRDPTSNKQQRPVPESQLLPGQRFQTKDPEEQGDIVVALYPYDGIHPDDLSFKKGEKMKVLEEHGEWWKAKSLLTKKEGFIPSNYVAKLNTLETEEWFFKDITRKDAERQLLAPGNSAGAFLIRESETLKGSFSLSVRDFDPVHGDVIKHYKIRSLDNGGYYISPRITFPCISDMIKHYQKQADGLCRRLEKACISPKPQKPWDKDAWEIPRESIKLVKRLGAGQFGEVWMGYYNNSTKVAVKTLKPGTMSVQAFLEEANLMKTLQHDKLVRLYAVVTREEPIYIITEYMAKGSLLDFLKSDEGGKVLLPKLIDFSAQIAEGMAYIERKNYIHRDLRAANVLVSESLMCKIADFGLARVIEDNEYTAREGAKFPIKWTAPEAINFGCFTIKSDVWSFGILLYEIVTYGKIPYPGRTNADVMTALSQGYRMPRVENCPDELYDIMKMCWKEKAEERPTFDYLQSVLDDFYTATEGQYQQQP
The experiment in a line: Lyn Kinase Assay. Conditions: 5 μM ATP. In kind it is biochemical. As to the method:
Test compound in 100% DMSO (0.5 μL) was added to the appropriate wells. Diluted Lyn kinase (human) (Accession Number EMBL M16038) (Upstate Biotechnology, Lake Placid, N.Y.) (diluted in a buffer consisting of 50 mM Tris at pH 7.5, 0.1 mM EGTA, Sodium Vanadate (0.1 mM), β-mercaptoethanol (0.1%) and 1 mg/mL bovine serum albumin) (2.5 μL) was added to the wells to initiate the reactions.
The reaction plates were incubated at 30° C. for 40 min. The reaction was terminated by the addition of a 3% phosphoric acid solution (5 μL). The reaction product (10 μL) was spotted onto a P30 filtermat and washed for 5 minutes in phosphoric acid (75 mM). The wash sequence was repeated two more times, followed with one final wash in methanol. The plates were then dried, sealed and read on the TopCount scintillation counter after adding 30 μL scintillation fluid.
A maximum and minimum signal for the assay was determined on each plate. The percent inhibition of a test compound was calculated according to the formula: […]
For a series of test concentrations, the IC50 was derived by graphing percent inhibition against the log of the concentrations tested for a given compound with results shown in Table 3
For compounds with multiple values, each value represents a separate assay result.

T4 sequence (O08775 786-1343): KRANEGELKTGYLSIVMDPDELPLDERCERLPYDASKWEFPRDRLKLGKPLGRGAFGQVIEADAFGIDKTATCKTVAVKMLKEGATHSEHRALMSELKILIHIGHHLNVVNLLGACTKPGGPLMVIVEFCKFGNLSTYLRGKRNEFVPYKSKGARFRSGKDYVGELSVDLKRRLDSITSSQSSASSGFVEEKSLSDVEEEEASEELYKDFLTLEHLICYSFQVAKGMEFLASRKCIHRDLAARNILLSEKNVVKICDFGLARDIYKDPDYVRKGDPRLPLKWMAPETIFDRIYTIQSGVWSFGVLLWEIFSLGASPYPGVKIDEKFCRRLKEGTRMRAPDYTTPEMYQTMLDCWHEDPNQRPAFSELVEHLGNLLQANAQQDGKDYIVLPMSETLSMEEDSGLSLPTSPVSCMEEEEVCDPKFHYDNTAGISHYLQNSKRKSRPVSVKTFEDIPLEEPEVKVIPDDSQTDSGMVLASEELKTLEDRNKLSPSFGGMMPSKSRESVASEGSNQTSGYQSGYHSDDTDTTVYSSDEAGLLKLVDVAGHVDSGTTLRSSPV

As to `CNCc1cncc(-c2cnc3[nH]nc(-c4nc5c(COC)cccc5[nH]4)c3c2)c1` [Cpd 56, {5-[3-(4-methoxymethyl-1H-benzoimidazol-2-yl)-1H-pyrazolo[3,4-b]pyridin-5-yl]-pyridin-3-ylmethyl}-methyl-amine], the IC50 is above 1000 nM at Aurora-A; 886 nM against c-Src kinase; above 100000 nM on HER2; 639 nM against VEGF-R2; 268 nM in the experiment with A375 malignant melanoma; 459 nM in experiment [1]. Moreover, the IC50 in the experiment on HCT-116 colon carcinoma is 313 nM; at CDK1, 2.54 nM; against RET it was around 1000 nM; against Lyn kinase, 1080 nM.

Take `COCc1cccc2[nH]c(-c3n[nH]c4ncc(-c5cncc(CNC(C)C)c5C)cc34)nc12` [Cpd 58, isopropyl-{5-[3-(4-methoxymethyl-1H-benzoimidazol-2-yl)-1H-pyrazolo[3,4-b]pyridin-5-yl]-4-methyl-pyridin-3-ylmethyl}-amine]: the IC50 against Aurora-A was 12400 nM; at c-Src kinase, 653 nM; against HER2, above 100000 nM; against VEGF-R2 it was 3900 nM; in the experiment on A375 malignant melanoma, 168 nM; in [1], 2700 nM. The IC50 is 459 nM in the experiment with HCT-116 colon carcinoma, 339 nM against CDK1, above 10000 nM against RET and 529 nM against Lyn kinase.

As for `COCc1cccc2[nH]c(-c3n[nH]c4ncc(-c5cncc(OC)c5)cc34)nc12` [Cpd 64, 3-(4-methoxymethyl-1H-benzoimidazol-2-yl)-5-(5-methoxy-pyridin-3-yl)-1H-pyrazolo[3,4-b]pyridine], the concentration for half-maximal inhibition (IC50) at Aurora-A is around 10000 nM; against c-Src kinase, 621 nM; against HER2 it was above 100000 nM; against VEGF-R2, 160 nM; in the experiment with A375 malignant melanoma, 11.3 nM; in [1] it was 1570 nM. Moreover, the IC50 in the experiment with HCT-116 colon carcinoma was 26.1 nM; against CDK1 it was 80.3 nM; at RET, above 100000 nM; at Lyn kinase, 4060 nM.

As for `COCc1cccc2[nH]c(-c3n[nH]c4ncc(-c5ccncc5)cc34)nc12` [Cpd 65, 3-(4-methoxymethyl-1H-benzoimidazol-2-yl)-5-pyridin-4-yl-1H-pyrazolo[3,4-b]pyridine], the IC50 against Aurora-A is above 1000 nM; against c-Src kinase it was 315 nM; at HER2, above 100000 nM; at VEGF-R2, 115 nM; in the experiment on A375 malignant melanoma, 22.6 nM; in experiment [1] it was 3090 nM. Also, the 50% inhibitory concentration (IC50) is 62 nM in the experiment with HCT-116 colon carcinoma, above 1000 nM on CDK1, above 100000 nM on RET and 277 nM against Lyn kinase.

As to `COCc1cccc2[nH]c(-c3n[nH]c4ncc(-c5ccc(N6CCNCC6)nc5)cc34)nc12` [Cpd 69, 3-(4-methoxymethyl-1H-benzoimidazol-2-yl)-5-(6-piperazin-1-yl-pyridin-3-yl)-1H-pyrazolo[3,4-b]pyridine], the IC50 against Aurora-A is above 1000 nM; against c-Src kinase, 597 nM; against HER2, above 100000 nM; against VEGF-R2, around 1000 nM; with A375 malignant melanoma it was 18.5 nM; in experiment [1] it was 1730 nM. The IC50 in the experiment on HCT-116 colon carcinoma is 77 nM; against CDK1, above 10000 nM; against RET, above 100000 nM; at Lyn kinase, 2890 nM.

With `COCc1cccc2[nH]c(-c3n[nH]c4ncc(-c5ccc(F)nc5)cc34)nc12` [Cpd 71, 5-(6-fluoro-pyridin-3-yl)-3-(4-methoxymethyl-1H-benzoimidazol-2-yl)-1H-pyrazolo[3,4-b]pyridine], the IC50 was above 10000 nM on Aurora-A; 278 nM on c-Src kinase; above 100000 nM on HER2; around 1000 nM on VEGF-R2; 150 nM with A375 malignant melanoma; 2260 nM in experiment [1]. Further, the IC50 was 283 nM with HCT-116 colon carcinoma, 375 nM against CDK1, above 100000 nM at RET and 9010 nM on Lyn kinase.

Regarding `COCc1cccc2[nH]c(-c3n[nH]c4ncc(-c5cncc(C=NO)c5)cc34)nc12` [Cpd 72, 5-[3-(4-methoxymethyl-1H-benzoimidazol-2-yl)-1H-pyrazolo[3,4-b]pyridin-5-yl]-pyridine-3-carbaldehyde oxime], the IC50 was above 10000 nM on Aurora-A; 375 nM against c-Src kinase; above 100000 nM at HER2; above 100000 nM against VEGF-R2; 10.2 nM in the experiment on A375 malignant melanoma; 640 nM in experiment [1]. Besides, the IC50 in the experiment on HCT-116 colon carcinoma is 29.2 nM; against CDK1, 23.6 nM; at RET, above 100000 nM; against Lyn kinase, 1050 nM.

Turning to `COCc1cccc2[nH]c(-c3n[nH]c4ncc(-c5cncc(CNC6CCN(C)CC6)c5)cc34)nc12` [Cpd 80, {5-[3-(4-methoxymethyl-1H-benzoimidazol-2-yl)-1H-pyrazolo[3,4-b]pyridin-5-yl]-pyridin-3-ylmethyl}-(1-methyl-piperidin-4-yl)-amine], the IC50 on Aurora-A was above 10000 nM; against c-Src kinase, 211 nM; against HER2 it was above 100000 nM; on VEGF-R2 it was 2080 nM; with A375 malignant melanoma, 397 nM; in experiment [1] it was above 10000 nM. In addition, the IC50 in the experiment on HCT-116 colon carcinoma was 2310 nM; against CDK1, 875 nM; on RET it was above 100000 nM; at Lyn kinase it was 192 nM.

In the case of `CN1CCN(c2ccc3[nH]c(-c4n[nH]c5ncc(-c6cncc(CN7CCOCC7)c6)cc45)nc3c2)CC1` [Cpd 84, 3-[5-(4-methyl-piperazin-1-yl)-1H-benzoimidazol-2-yl]-5-(5-morpholin-4-ylmethyl-pyridin-3-yl)-1H-pyrazolo[3,4-b]pyridine], the IC50 is 87.3 nM at Aurora-A; 5.18 nM on c-Src kinase; 1850 nM on HER2; around 100 nM against VEGF-R2; 2530 nM with A375 malignant melanoma; 1880 nM in experiment [1]. The half-maximal inhibitory concentration (IC50) was 739 nM in the experiment on HCT-116 colon carcinoma, 32.2 nM on CDK1, above 1000 nM at RET and 9.65 nM against Lyn kinase.
